Tested on: E. faecalis (CL 4877)
Assay: Zone of inhibition screen, 96 well agar array format
Format: cell-based
Parameters: scale not given here
Conditions: zone of inhibition relative to 1 mg/ml stock solution of p-chlorobiphenylvancomycin
Method: The antibacterial activity of each of the compounds against the bacterial strains E. faceium (ATCC 49624), S. epidermidis (ATCC 12228), S. aureus (ATCC 29213), E. faecalis (CL 4877) and E. faecalis (ATCC 292121) was tested. Each of the compounds was screened in a 96 will agar array format.

SMILES	zone score, E. faecalis CL 4877
CC1OC(OC2C(Oc3c4cc5cc3Oc3ccc(cc3Cl)C(O)C3NC(=O)C(NC(=O)C5NC(=O)C(CC(N)=O)NC(=O)C(NC(=O)c5nccnc5N)C(O)c5ccc(c(Cl)c5)O4)c4ccc(O)c(c4)-c4c(O)cc(O)cc4C(C(=O)O)NC3=O)OC(CO)C(O)C2O)CC(C)(NCc2ccc(-c3ccc(Cl)cc3)cc2)C1O (stereo not drawn) [Compound 105]	2
CC(=O)NC(CCCNC(=N)N)C(=O)NC1C(=O)NC(CC(N)=O)C(=O)NC2C(=O)NC3C(=O)NC(C(=O)NC(C(=O)O)c4cc(O)cc(O)c4-c4cc3ccc4O)C(O)c3ccc(c(Cl)c3)Oc3cc2cc(c3OC2OC(CO)C(O)C(O)C2OC2CC(C)(NCc3ccc(-c4ccc(Cl)cc4)cc3)C(O)C(C)O2)Oc2ccc(cc2Cl)C1O (stereo not drawn) [Compound 111]	2
CC(=O)NC(CC(N)=O)C(=O)NC1C(=O)NC(CC(N)=O)C(=O)NC2C(=O)NC3C(=O)NC(C(=O)NC(C(=O)O)c4cc(O)cc(O)c4-c4cc3ccc4O)C(O)c3ccc(c(Cl)c3)Oc3cc2cc(c3OC2OC(CO)C(O)C(O)C2OC2CC(C)(NCc3ccc(-c4ccc(Cl)cc4)cc3)C(O)C(C)O2)Oc2ccc(cc2Cl)C1O (stereo not drawn) [Compound 113]	2
CC(=O)NC(C(=O)NC1C(=O)NC(CC(N)=O)C(=O)NC2C(=O)NC3C(=O)NC(C(=O)NC(C(=O)O)c4cc(O)cc(O)c4-c4cc3ccc4O)C(O)c3ccc(c(Cl)c3)Oc3cc2cc(c3OC2OC(CO)C(O)C(O)C2OC2CC(C)(NCc3ccc(-c4ccc(Cl)cc4)cc3)C(O)C(C)O2)Oc2ccc(cc2Cl)C1O)C(C)O (stereo not drawn) [Compound 125]	2
CC1OC(OC2C(Oc3c4cc5cc3Oc3ccc(cc3Cl)C(O)C3NC(=O)C(NC(=O)C5NC(=O)C(CC(N)=O)NC(=O)C(NC(=O)C(NC(N)=O)NC(N)=O)C(O)c5ccc(c(Cl)c5)O4)c4ccc(O)c(c4)-c4c(O)cc(O)cc4C(C(=O)O)NC3=O)OC(CO)C(O)C2O)CC(C)(NCc2ccc(-c3ccc(Cl)cc3)cc2)C1O (stereo not drawn) [Compound 126]	2
CC1OC(OC2C(Oc3c4cc5cc3Oc3ccc(cc3Cl)C(O)C(NC(=O)C(O)C(O)C(O)CO)C(=O)NC(CC(N)=O)C(=O)NC5C(=O)NC3C(=O)NC(C(=O)NC(C(=O)O)c5cc(O)cc(O)c5-c5cc3ccc5O)C(O)c3ccc(c(Cl)c3)O4)OC(CO)C(O)C2O)CC(C)(NCc2ccc(-c3ccc(Cl)cc3)cc2)C1O (stereo not drawn) [Compound 127]	2
CC1OC(OC2C(Oc3c4cc5cc3Oc3ccc(cc3Cl)C(O)C3NC(=O)C(NC(=O)C5NC(=O)C(CC(N)=O)NC(=O)C(NC(=O)C(CC(N)=O)NC(=O)OC(C)(C)C)C(O)c5ccc(c(Cl)c5)O4)c4ccc(O)c(c4)-c4c(O)cc(O)cc4C(C(=O)O)NC3=O)OC(CO)C(O)C2O)CC(C)(NCc2ccc(-c3ccc(Cl)cc3)cc2)C1O (stereo not drawn) [Compound 133]	2
CC1OC(OC2C(Oc3c4cc5cc3Oc3ccc(cc3Cl)C(O)C3NC(=O)C(NC(=O)C5NC(=O)C(CC(N)=O)NC(=O)C(NC(=O)C(CCCNC(=N)N)NC(=O)CNC(=O)OC(C)(C)C)C(O)c5ccc(c(Cl)c5)O4)c4ccc(O)c(c4)-c4c(O)cc(O)cc4C(C(=O)O)NC3=O)OC(CO)C(O)C2O)CC(C)(NCc2ccc(-c3ccc(Cl)cc3)cc2)C1O (stereo not drawn) [Compound 138]	2
CC1OC(OC2C(Oc3c4cc5cc3Oc3ccc(cc3Cl)C(O)C3NC(=O)C(NC(=O)C5NC(=O)C(CC(N)=O)NC(=O)C(NC(=O)CNC(=O)CNC(=O)OC(C)(C)C)C(O)c5ccc(c(Cl)c5)O4)c4ccc(O)c(c4)-c4c(O)cc(O)cc4C(C(=O)O)NC3=O)OC(CO)C(O)C2O)CC(C)(NCc2ccc(-c3ccc(Cl)cc3)cc2)C1O (stereo not drawn) [Compound 140]	2
CC1OC(OC2C(Oc3c4cc5cc3Oc3ccc(cc3Cl)C(O)C3NC(=O)C(NC(=O)C5NC(=O)C(CC(N)=O)NC(=O)C(NC(=O)CC5OCC6CN7CC8C9=CC(=O)C(=O)C([N+](=O)[O-])=C9NC8C5C6CC7C)C(O)c5ccc(c(Cl)c5)O4)c4ccc(O)c(c4)-c4c(O)cc(O)cc4C(C(=O)O)NC3=O)OC(CO)C(O)C2O)CC(C)(NCc2ccc(-c3ccc(Cl)cc3)cc2)C1O (stereo not drawn) [Compound 144]	2
CC1OC(OC2C(Oc3c4cc5cc3Oc3ccc(cc3Cl)C(O)C3NC(=O)C(NC(=O)C5NC(=O)C(CC(N)=O)NC(=O)C(NC(=O)CN(C)C(=N)N)C(O)c5ccc(c(Cl)c5)O4)c4ccc(O)c(c4)-c4c(O)cc(O)cc4C(C(=O)O)NC3=O)OC(CO)C(O)C2O)CC(C)(NCc2ccc(-c3ccc(Cl)cc3)cc2)C1O (stereo not drawn) [Compound 145]	2
CC1OC(OC2C(Oc3c4cc5cc3Oc3ccc(cc3Cl)C(O)C(NC(=O)C3(O)CC(O)C(O)C(O)C3)C(=O)NC(CC(N)=O)C(=O)NC5C(=O)NC3C(=O)NC(C(=O)NC(C(=O)O)c5cc(O)cc(O)c5-c5cc3ccc5O)C(O)c3ccc(c(Cl)c3)O4)OC(CO)C(O)C2O)CC(C)(NCc2ccc(-c3ccc(Cl)cc3)cc2)C1O (stereo not drawn) [Compound 146]	2
CC1OC(OC2C(Oc3c4cc5cc3Oc3ccc(cc3Cl)C(O)C(NC(=O)C(O)C3OC(=O)C(O)C3O)C(=O)NC(CC(N)=O)C(=O)NC5C(=O)NC3C(=O)NC(C(=O)NC(C(=O)O)c5cc(O)cc(O)c5-c5cc3ccc5O)C(O)c3ccc(c(Cl)c3)O4)OC(CO)C(O)C2O)CC(C)(NCc2ccc(-c3ccc(Cl)cc3)cc2)C1O (stereo not drawn) [Compound 155]	2
CC1OC(OC2C(Oc3c4cc5cc3Oc3ccc(cc3Cl)C(O)C3NC(=O)C(NC(=O)C5NC(=O)C(CC(N)=O)NC(=O)C(NC(=O)C=O)C(O)c5ccc(c(Cl)c5)O4)c4ccc(O)c(c4)-c4c(O)cc(O)cc4C(C(=O)O)NC3=O)OC(CO)C(O)C2O)CC(C)(NCc2ccc(-c3ccc(Cl)cc3)cc2)C1O (stereo not drawn) [Compound 159]	2
CC1OC(OC2C(Oc3c4cc5cc3Oc3ccc(cc3Cl)[C@@H](O)[C@@H](NC(=O)CNC(=O)CNC(=O)CNC(=O)c3ccccc3)C(=O)N[C@@H](CC(N)=O)C(=O)N[C@H]5C(=O)NC3C(=O)N[C@H](C(=O)N[C@@H](C(=O)O)c5cc(O)cc(O)c5-c5cc3ccc5O)[C@H](O)c3ccc(c(Cl)c3)O4)OC(CO)C(O)C2O)CC(C)(NCc2ccc(-c3ccc(Cl)cc3)cc2)C1O (stereo partly drawn) [Compound 161]	2
CC1OC(OC2C(Oc3c4cc5cc3Oc3ccc(cc3Cl)[C@@H](O)[C@@H](NC(=O)CNC(N)=O)C(=O)N[C@@H](CC(N)=O)C(=O)N[C@H]5C(=O)NC3C(=O)N[C@H](C(=O)N[C@@H](C(=O)O)c5cc(O)cc(O)c5-c5cc3ccc5O)[C@H](O)c3ccc(c(Cl)c3)O4)OC(CO)C(O)C2O)CC(C)(NCc2ccc(-c3ccc(Cl)cc3)cc2)C1O (stereo partly drawn) [Compound 162]	2
CC1OC(OC2C(Oc3c4cc5cc3Oc3ccc(cc3Cl)[C@@H](O)[C@@H](NC(=O)[C@H](O)CCCNC(=N)N)C(=O)N[C@@H](CC(N)=O)C(=O)N[C@H]5C(=O)NC3C(=O)N[C@H](C(=O)N[C@@H](C(=O)O)c5cc(O)cc(O)c5-c5cc3ccc5O)[C@H](O)c3ccc(c(Cl)c3)O4)OC(CO)C(O)C2O)CC(C)(NCc2ccc(-c3ccc(Cl)cc3)cc2)C1O (stereo partly drawn) [Compound 165]	2
CC1OC(OC2C(Oc3c4cc5cc3Oc3ccc(cc3Cl)[C@@H](O)[C@@H](NC(=O)[C@H]3CC(=O)NC(=O)N3)C(=O)N[C@@H](CC(N)=O)C(=O)N[C@H]5C(=O)NC3C(=O)N[C@H](C(=O)N[C@@H](C(=O)O)c5cc(O)cc(O)c5-c5cc3ccc5O)[C@H](O)c3ccc(c(Cl)c3)O4)OC(CO)C(O)C2O)CC(C)(NCc2ccc(-c3ccc(Cl)cc3)cc2)C1O (stereo partly drawn) [Compound 168]	2
CC1OC(OC2C(Oc3c4cc5cc3Oc3ccc(cc3Cl)[C@@H](O)[C@@H](NC(=O)[C@@H]3CCC(=O)N3)C(=O)N[C@@H](CC(N)=O)C(=O)N[C@H]5C(=O)NC3C(=O)N[C@H](C(=O)N[C@@H](C(=O)O)c5cc(O)cc(O)c5-c5cc3ccc5O)[C@H](O)c3ccc(c(Cl)c3)O4)OC(CO)C(O)C2O)CC(C)(NCc2ccc(-c3ccc(Cl)cc3)cc2)C1O (stereo partly drawn) [Compound 169]	2
CC1OC(OC2C(Oc3c4cc5cc3Oc3ccc(cc3Cl)[C@@H](O)[C@@H](NC(=O)CS(C)(=O)=O)C(=O)N[C@@H](CC(N)=O)C(=O)N[C@H]5C(=O)NC3C(=O)N[C@H](C(=O)N[C@@H](C(=O)O)c5cc(O)cc(O)c5-c5cc3ccc5O)[C@H](O)c3ccc(c(Cl)c3)O4)OC(CO)C(O)C2O)CC(C)(NCc2ccc(-c3ccc(Cl)cc3)cc2)C1O (stereo partly drawn) [Compound 171]	2
CC(=O)CC(=O)NCC(=O)N[C@H]1C(=O)N[C@@H](CC(N)=O)C(=O)N[C@H]2C(=O)NC3C(=O)N[C@H](C(=O)N[C@@H](C(=O)O)c4cc(O)cc(O)c4-c4cc3ccc4O)[C@H](O)c3ccc(c(Cl)c3)Oc3cc2cc(c3OC2OC(CO)C(O)C(O)C2OC2CC(C)(NCc3ccc(-c4ccc(Cl)cc4)cc3)C(O)C(C)O2)Oc2ccc(cc2Cl)[C@H]1O (stereo partly drawn) [Compound 172]	2
CC(=O)NCC(=O)N[C@H]1C(=O)N[C@@H](CC(N)=O)C(=O)N[C@H]2C(=O)NC3C(=O)N[C@H](C(=O)N[C@@H](C(=O)O)c4cc(O)cc(O)c4-c4cc3ccc4O)[C@H](O)c3ccc(c(Cl)c3)Oc3cc2cc(c3OC2OC(CO)C(O)C(O)C2OC2CC(C)(NCc3ccc(-c4ccc(Cl)cc4)cc3)C(O)C(C)O2)Oc2ccc(cc2Cl)[C@H]1O (stereo partly drawn) [Compound 179]	2
CC(=O)NC(CCCNC(=N)N)C(=O)NC1C(=O)NC(CC(N)=O)C(=O)NC2C(=O)NC3C(=O)NC(C(=O)NC(C(=O)O)c4cc(O)cc(O)c4-c4cc3ccc4O)C(O)c3ccc(c(Cl)c3)Oc3cc2cc(c3OC2OC(CO)C(O)C(O)C2OC2CC(C)(NCc3ccc(-c4ccc(Cl)cc4)cc3)C(O)C(C)O2)Oc2ccc(cc2Cl)C1O (stereo not drawn) [Compound 184]	2
CC1OC(OC2C(Oc3c4cc5cc3Oc3ccc(cc3Cl)C(O)C3NC(=O)C(NC(=O)C5NC(=O)C(CC(N)=O)NC(=O)C(NC(=O)C(Cc5c[nH]cn5)NC(N)=O)C(O)c5ccc(c(Cl)c5)O4)c4ccc(O)c(c4)-c4c(O)cc(O)cc4C(C(=O)O)NC3=O)OC(CO)C(O)C2O)CC(C)(NCc2ccc(-c3ccc(Cl)cc3)cc2)C1O (stereo not drawn) [Compound 192]	2

From patent US6518243B1, “Desleucyl glycopeptide antibiotics and methods of making same” (Trustees of Princeton University, priority 1999, dated 2003)
